In patent US7186701B2, “Dehydrating agent and method for dehydrating moist article using the agent and dehydrated article obtained by the method” (Kabushiki Kaisha Hayashibara Seibutsu Kagaku Kenkyujo, priority 2001, dated 2007):

How the values were obtained:
[1] = tested on: α-isomaltosylglucosaccharide-forming enzyme; assay: Specificity of transfer acceptor (C11 enzyme); type: biochemical, Bacillus globisporus C11 strain; set-up: key: −: no saccharide-transferred product was detected through transferring reaction to acceptor; ±: a saccharide-transferred product was detected in an amount of less than one percent through transfer reaction to acceptor; +: a saccharide-transferred product was detected in an amount of at least one percent but less than ten percent through transferring reaction to acceptor; ++: a saccharide-transferred product was detected in an amount of at least ten percent through transferring reaction to acceptor; conditions: acceptor 1.6%, PINE-DEX #100 donor 4%, one unit/g donor, 30° C., pH 6.0, 24 hours
Experimental: (§1) A variety of saccharides were tested whether they could be used as transferring-acceptors for the α-isomaltosylglucosaccharide-forming enzyme. A solution of D-glucose, D-xylose, L-xylose, D-galactose, D-fructose, D-mannose, D-arabinose, D-fucose, L-sorbose, L-rhamnose, methyl-α-glucopyranoside, methyl-β-glucopyranoside, N-acetyl-glucosamine, sorbitol, α,α-trehalose, isomaltose, isomaltotriose, cellobiose, gentibiose, maltitol, lactose, sucrose, α-cyclodextrin, β-cyclodextrin, or γ-cyclodextrin was prepared. […] The reaction mixtures after the enzymatic reactions were analyzed on gas chromatography (abbreviated as “GLC” hereinafter) for monosaccharides and disaccharides as acceptors, and on HPLC for trisaccharides and higher saccharides as acceptors to confirm whether these saccharides could be used as their transfer acceptors. In the case of performing GLC, the following apparatuses and conditions were used: […] In the case of HPLC analysis, the apparatuses and conditions used were: HPLC apparatus, “CCPD” commercialized by Tosoh Corporation, Tokyo, Japan; column, “ODS-AQ-303” commercialized by YMC Co., Ltd., Tokyo, Japan; eluent, water at a flow rate of 0.5 ml/min; and detection, a differential refractometer.

[2] = tested on: α-isomaltosylglucosaccharide-forming enzyme; assay: Specificity of transfer acceptor (C9 enzyme); type: biochemical, Bacillus globisporus C9 strain; set-up: key: −: no saccharide-transferred product was detected through transferring reaction to acceptor; ±: a saccharide-transferred product was detected in an amount of less than one percent through transfer reaction to acceptor; +: a saccharide-transferred product was detected in an amount of at least one percent but less than ten percent through transferring reaction to acceptor; ++: a saccharide-transferred product was detected in an amount of at least ten percent through transferring reaction to acceptor; conditions: acceptor 1.6%, PINE-DEX #100 donor 4%, one unit/g donor, 30° C., pH 6.0, 24 hours
Experimental: as §1

Structure (SMILES)	Product of saccharide transferring reaction, Enzyme of C11 strain [1]	Product of saccharide transferring reaction, Enzyme of C9 strain [2]
O=C[C@H](O)[C@@H](O)[C@H](O[C@@H]1O[C@H](CO)[C@@H](O)[C@H](O)[C@H]1O)[C@H](O)CO [Cellobiose, cellobiose]	++ (a saccharide-transferred product was detected in an amount of at least ten percent through transferring reaction to acceptor)	++ (a saccharide-transferred product was detected in an amount of at least ten percent through transferring reaction to acceptor)
O=C[C@@H](O)[C@H](O)[C@H](O)CO [D-Arabinose, D-arabinose]	± (a saccharide-transferred product was detected in an amount of less than one percent through transfer reaction to acceptor)	± (a saccharide-transferred product was detected in an amount of less than one percent through transfer reaction to acceptor)
O=C(CO)[C@@H](O)[C@H](O)[C@H](O)CO [D-Fructose, D-fructose]	+ (a saccharide-transferred product was detected in an amount of at least one percent but less than ten percent through transferring reaction to acceptor)	+ (a saccharide-transferred product was detected in an amount of at least one percent but less than ten percent through transferring reaction to acceptor)
C[C@@H](O)[C@H](O)[C@H](O)[C@@H](O)C=O [D-Fucose, D-fucose]	+ (a saccharide-transferred product was detected in an amount of at least one percent but less than ten percent through transferring reaction to acceptor)	+ (a saccharide-transferred product was detected in an amount of at least one percent but less than ten percent through transferring reaction to acceptor)
O=C[C@H](O)[C@@H](O)[C@@H](O)[C@H](O)CO [D-Galactose, D-galactose]	+ (a saccharide-transferred product was detected in an amount of at least one percent but less than ten percent through transferring reaction to acceptor)	+ (a saccharide-transferred product was detected in an amount of at least one percent but less than ten percent through transferring reaction to acceptor)
O=C[C@@H](O)[C@@H](O)[C@H](O)[C@H](O)CO [D-Mannose, D-mannose]	−	−
O=C[C@H](O)[C@@H](O)[C@H](O)CO [D-Xylose, D-xylose]	++ (a saccharide-transferred product was detected in an amount of at least ten percent through transferring reaction to acceptor)	++ (a saccharide-transferred product was detected in an amount of at least ten percent through transferring reaction to acceptor)
OC[C@H]1O[C@@H](OC[C@H]2OC(O)[C@H](O)[C@@H](O)[C@@H]2O)[C@H](O)[C@@H](O)[C@@H]1O (stereo partly drawn) [Gentibiose, gentibiose]	++ (a saccharide-transferred product was detected in an amount of at least ten percent through transferring reaction to acceptor)	++ (a saccharide-transferred product was detected in an amount of at least ten percent through transferring reaction to acceptor)
OC[C@H]1O[C@H](OC[C@H]2OC(O)[C@H](O)[C@@H](O)[C@@H]2O)[C@H](O)[C@@H](O)[C@@H]1O (stereo partly drawn) [Isomaltose, isomaltose]	++ (a saccharide-transferred product was detected in an amount of at least ten percent through transferring reaction to acceptor)	++ (a saccharide-transferred product was detected in an amount of at least ten percent through transferring reaction to acceptor)
OC[C@H]1O[C@H](OC[C@H]2O[C@H](OC[C@H]3OC(O)[C@H](O)[C@@H](O)[C@@H]3O)[C@H](O)[C@@H](O)[C@@H]2O)[C@H](O)[C@@H](O)[C@@H]1O (stereo partly drawn) [Isomaltotriose, isomaltotriose]	++ (a saccharide-transferred product was detected in an amount of at least ten percent through transferring reaction to acceptor)	++ (a saccharide-transferred product was detected in an amount of at least ten percent through transferring reaction to acceptor)
C[C@H](O)[C@H](O)[C@@H](O)[C@@H](O)C=O [L-Rhamnose, L-rhamnose]	−	−
O=C(CO)[C@@H](O)[C@H](O)[C@@H](O)CO [L-Sorbose, L-sorbose]	+ (a saccharide-transferred product was detected in an amount of at least one percent but less than ten percent through transferring reaction to acceptor)	+ (a saccharide-transferred product was detected in an amount of at least one percent but less than ten percent through transferring reaction to acceptor)
O=C[C@@H](O)[C@H](O)[C@@H](O)CO [L-Xylose, L-xylose]	++ (a saccharide-transferred product was detected in an amount of at least ten percent through transferring reaction to acceptor)	++ (a saccharide-transferred product was detected in an amount of at least ten percent through transferring reaction to acceptor)
OC[C@H]1O[C@@H](O[C@H]2[C@H](O)[C@@H](O)C(O)O[C@@H]2CO)[C@H](O)[C@@H](O)[C@H]1O (stereo partly drawn) [Lactose, lactose]	++ (a saccharide-transferred product was detected in an amount of at least ten percent through transferring reaction to acceptor)	++ (a saccharide-transferred product was detected in an amount of at least ten percent through transferring reaction to acceptor)
CO[C@H]1O[C@H](CO)[C@@H](O)[C@H](O)[C@H]1O [Methyl-α-glucopyranoside, methyl-α-glucopyranoside]	++ (a saccharide-transferred product was detected in an amount of at least ten percent through transferring reaction to acceptor)	++ (a saccharide-transferred product was detected in an amount of at least ten percent through transferring reaction to acceptor)
CO[C@@H]1O[C@H](CO)[C@@H](O)[C@H](O)[C@H]1O [Methyl-β-glucopyranoside, methyl-β-glucopyranoside]	++ (a saccharide-transferred product was detected in an amount of at least ten percent through transferring reaction to acceptor)	++ (a saccharide-transferred product was detected in an amount of at least ten percent through transferring reaction to acceptor)
CC(=O)N[C@H]1C(O)O[C@H](CO)[C@@H](O)[C@@H]1O (stereo partly drawn) [N-Acetyl-glucosamine, N-acetyl-glucosamine]	+ (a saccharide-transferred product was detected in an amount of at least one percent but less than ten percent through transferring reaction to acceptor)	+ (a saccharide-transferred product was detected in an amount of at least one percent but less than ten percent through transferring reaction to acceptor)
OC[C@@H](O)[C@@H](O)[C@H](O)[C@@H](O)CO [Sorbitol, sorbitol]	−	−
